Assay results reported in patent US7550480B2, “Compounds” (SmithKline Beecham Corporation, priority 2003, dated 2009).
“And” between values parts separate entries of the source, which are not always exact repeats. Identical values can stand only once.

Assays:
CSBP/p38 [1] = biological target: T1, CSBP/p38 (Homo sapiens, UniProt Q16539); test: Fluorescence Anisotropy Kinase Binding Assay; conditions: pKi is the negative log of the Ki; p38 enzyme 12 nM, fluorescent ligand 5 nM
Procedure: The concentration of kinase enzyme should preferably be ≧1×Kf. The concentration of fluorescent ligand required will depend on the instrumentation used, and the fluorescent and physicochemical properties. The concentration used must be lower than the concentration of kinase enzyme, and preferably less than half the kinase enzyme concentration.
All components dissolved in Buffer of final composition 62.5 mM HEPES, pH 7.5, 1.25 mM CHAPS, 1.25 mM […], 12.5 mM MgCl2 3.3% DMSO.
p38 Enzyme concentration: 12 nM
Fluorescent ligand concentration: 5 nM
Test compound concentration: 0.1 nM-100 uM
Components incubated in 30 ul final volume in NUNC 384 well black microtitre plate until equilibrium reached (5-30 mins)
Fluorescence anisotropy read in LJL Acquest.
Definitions: Ki=dissociation constant for inhibitor binding
• Kf=dissociation constant for fluorescent ligand binding The fluorescent ligand is the following compound:
[drawing 13] which is derived from 5-[2-(4-aminomethylphenyl)-5-pyridin-4-yl-1H-imidazol-4-yl]-2-chlorophenol and rhodamine green.

CSBP/p38 [2] = biological target: T1, CSBP/p38; test: CSBP/p38 Kinase Assay (32P transfer to EGFR-derived T669 peptide); type: biochemical; design: made in house; host or cells: yeast; conditions: for IC50: 0.17 mM ATP, 0.67 mM T669 peptide, 2-4 nM yeast-expressed activated p38, 25 min at 37° C.; for active as inhibitors of the CSBP kinase: statement in words, assay not given
Procedure: This assay measures the CSBP/p38-catalyzed transfer of ^32P from [a-^32P]ATP to threonine residue in an epidermal growth factor receptor (EGFR)-derived peptide (T669) with the following sequence: […] (SEQ ID 1) (residues 661-681). (See Gallagher et al., “Regulation of Stress Induced Cytokine Production by Pyridinyl Imidazoles: Inhibition of CSBP Kinase”, BioOrganic & Medicinal Chemistry, 1997, 5, 49-64).
Reactions are carried in round bottom 96 well plate (from Corning) in a […] volume. […] Filters are washed with 75 mM phosphoric acids, and incorporated 32P was quantified using beta scintillation counter. Under these conditions, the specific activity of p38 will be determined and is generally 400-450 pmol/pmol enzyme, and the activity being linear for up to 2 hours of incubation. The kinase activity values are obtained after subtracting values generated in the absence of substrate which were 10-15% of total values.

T1 sequence (Q16539 whole entry): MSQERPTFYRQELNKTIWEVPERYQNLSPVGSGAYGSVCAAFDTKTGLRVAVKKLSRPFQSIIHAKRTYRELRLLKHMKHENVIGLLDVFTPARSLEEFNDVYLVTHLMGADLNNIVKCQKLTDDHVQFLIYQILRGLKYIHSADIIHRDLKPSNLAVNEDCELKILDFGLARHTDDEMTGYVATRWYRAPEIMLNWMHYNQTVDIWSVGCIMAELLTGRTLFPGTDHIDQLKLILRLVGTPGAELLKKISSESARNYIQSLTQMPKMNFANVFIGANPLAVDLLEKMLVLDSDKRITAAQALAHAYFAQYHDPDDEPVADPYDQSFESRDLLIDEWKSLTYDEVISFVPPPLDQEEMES

Structure (SMILES) | Ki (CSBP/p38 [1]) | IC50 (CSBP/p38 [2]) | active as inhibitors of the CSBP kinase (CSBP/p38 [2])
O=c1ccc2c(-c3ccccc3)nccc2n1Cc1ccccc1 [Example 9, 1-Benzyl-5-phenyl-1H-[1,6]naphthyridin-2-one] |  | 60 nM | 
O=c1ccc2c(-c3ccccc3)nccc2n1-c1ccccc1 [Example 10, 1,5-Diphenyl-1H-[1,6]naphthyridin-2-one] |  | 200 nM | 

Results, then the compound that gave them:

Ki (CSBP/p38 [1]) | IC50 (CSBP/p38 [2]) | active as inhibitors of the CSBP kinase (CSBP/p38 [2]) | Structure (SMILES)
20 nM and 12.6 nM |  |  | COc1cc2c(ccc(=O)n2-c2ccccc2Cl)c(-c2ccccc2Cl)c1Br (single isomer, unassigned) [Example 17, 6-bromo-1,5-bis(2-chlorophenyl)-7-(methyloxy)-2(1H)-quinolinone]
 | 5000 nM | active | Cn1c(=O)ccc2c(-c3ccccc3)nccc21 [Example 11, 1-Methyl-5-phenyl-1H-[1,6]naphthyridin-2-one]
 | 13400 nM | active | O=c1ccc2c(-c3ccccc3)nccc2[nH]1 [Example 12, 5-Phenyl-1H-[1,6]naphthyridin-2-one]
